Data as given in patent US12590131B2, “Antimicrobial peptides with alpha-core helices” (priority 2017, dated 2026).

Tested on: panel of prototypic gram-positive (S. aureus), gram-negative (S. typhimurium, P. aeruginosa, A. baumannii) and fungal (C. albicans) pathogens
Assay: Radial diffusion assay for microbicidal activity, whole pathogen panel
Assay type: cell-based
Settings: 10 μg peptide
Procedure: Select candidate microbicidal peptides were commercially synthesized by BioMatik (Biomatik USA, Wilmington, Delaware). Lyophilized peptides were reconstituted with ddIH20 and stored in aliquots at −20° C. LL-37 (Peptides International, Louisville, KY), a prototypic human AHAP, was used as a comparator in microbicidal assays.
Putative antimicrobial peptides were assayed for microbicidal activity using a well-established radial diffusion method modified to pH 5.5 or 7.5. A panel of microorganisms was tested: Gram-positive Staphylococcus aureus (ISP 479C, ISP 479R); Gram-negative Salmonella typhimurium (MS 5996s, MS 14028), Pseudomonas aeruginosa (PA01), Acinetobacter baumanni (19606) and the fungus Candida albicans (36082S, 36082R). Logarithmic phase organisms were inoculated (10^6 CFU/ml) into buffered agarose, and poured into plates. Peptides (10 μg) were introduced into wells in the seeded matrix, and incubated for 3 h at 37° C. Nutrient overlay medium was applied, and assays incubated at 37° C. or 30° C. for bacteria or fungi, respectively. After 24h, zones of inhibition were measured. Independent experiments were repeated a minimum of two times.

Substance	relative potency at pH 7.5 versus pH 5.5	microbicidal activity (zones of inhibition) (pH 7.5 and pH 5.5, FIG. 9)	microbicidal activity (zones of inhibition) (pH 5.5)	microbicidal activity (zones of inhibition) (pH 7.5)
bIFN-γ (KAISELYNVITELSKSNSKMRKRRQNLFRGWKASK)	somewhat more potent at pH 7.5 than 5.5	significant activity against most organisms	–	–
hIFN-γ (AIHELIQVMAELSPAAKTGKRKRSQMLFRGRRASQ)	somewhat more potent at pH 7.5 than 5.5	significant activity against most organisms	–	–
hIL7 (LCFLKRLLQEIKTCWNKILMGTKEH)	–	–	retained significant activity	somewhat less potent
hIL-13 (EVAQFVKDLLLHLKKLFREGRFN)	–	–	retained significant activity	somewhat less potent
hIL-21 (KEFLERFKSLLQKMIHQHLSSRTHGSEDS)	–	–	retained significant activity	somewhat less potent
tIL-5 (KRFIEKLRTFLRKLSRGAK)	–	markedly potent against all organisms	–	–
